Activity calls are given as the source filed them. The calls are words filed in the database; no cut-off is given here.
Experiments:
Cannabinoid receptor 1 [1] = molecular target: T1, Cannabinoid receptor 1 (Homo sapiens, UniProt P21554); assay: Displacement of [3H]- CP55940 from human CB1R expressed in CHO-K1 cells membrane by Cheng-Prusoff equation analysis; format: cell membranes, Cell membrane
Cannabinoid receptor 2 = Cannabinoid receptor 2 (Homo sapiens, UniProt P34972); assay: Displacement of [3H]- CP55940 from human CB2R expressed in CHO-K1 cells membrane by Cheng-Prusoff equation analysis; format: cell membranes, Cell membrane
Chain of Cannabinoid receptor 2 (P34972 whole entry): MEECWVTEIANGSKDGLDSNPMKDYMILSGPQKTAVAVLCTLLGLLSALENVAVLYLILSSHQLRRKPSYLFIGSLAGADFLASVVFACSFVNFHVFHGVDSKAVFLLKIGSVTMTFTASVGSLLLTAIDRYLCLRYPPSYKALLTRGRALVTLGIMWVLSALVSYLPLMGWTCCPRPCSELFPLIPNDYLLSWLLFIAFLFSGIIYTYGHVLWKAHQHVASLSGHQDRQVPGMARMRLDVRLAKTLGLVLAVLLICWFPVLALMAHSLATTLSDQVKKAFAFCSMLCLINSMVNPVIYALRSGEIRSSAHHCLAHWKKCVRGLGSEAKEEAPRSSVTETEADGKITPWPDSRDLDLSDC

Cannabinoid receptor 1 [2] = molecular target: T1, Cannabinoid receptor 1; assay: Antagonist activity at human CB1R expressed in CHO-K1 cell membranes assessed as stimulation of [35S]-GTPgammaS binding by liquid scintillation counting method; format: functional, Cell membrane
[3] = molecular target: Nitric oxide synthase, inducible (Homo sapiens) (UniProt P35228); assay: Inhibition of recombinant iNOS (unknown origin) assessed as reduction in L-[3H]-citrulline level using L-[3H]-arginine as substrate at 10 uM by Enzymatic NOS activity assay
Chain of Nitric oxide synthase, inducible (Homo sapiens) (P35228 whole entry): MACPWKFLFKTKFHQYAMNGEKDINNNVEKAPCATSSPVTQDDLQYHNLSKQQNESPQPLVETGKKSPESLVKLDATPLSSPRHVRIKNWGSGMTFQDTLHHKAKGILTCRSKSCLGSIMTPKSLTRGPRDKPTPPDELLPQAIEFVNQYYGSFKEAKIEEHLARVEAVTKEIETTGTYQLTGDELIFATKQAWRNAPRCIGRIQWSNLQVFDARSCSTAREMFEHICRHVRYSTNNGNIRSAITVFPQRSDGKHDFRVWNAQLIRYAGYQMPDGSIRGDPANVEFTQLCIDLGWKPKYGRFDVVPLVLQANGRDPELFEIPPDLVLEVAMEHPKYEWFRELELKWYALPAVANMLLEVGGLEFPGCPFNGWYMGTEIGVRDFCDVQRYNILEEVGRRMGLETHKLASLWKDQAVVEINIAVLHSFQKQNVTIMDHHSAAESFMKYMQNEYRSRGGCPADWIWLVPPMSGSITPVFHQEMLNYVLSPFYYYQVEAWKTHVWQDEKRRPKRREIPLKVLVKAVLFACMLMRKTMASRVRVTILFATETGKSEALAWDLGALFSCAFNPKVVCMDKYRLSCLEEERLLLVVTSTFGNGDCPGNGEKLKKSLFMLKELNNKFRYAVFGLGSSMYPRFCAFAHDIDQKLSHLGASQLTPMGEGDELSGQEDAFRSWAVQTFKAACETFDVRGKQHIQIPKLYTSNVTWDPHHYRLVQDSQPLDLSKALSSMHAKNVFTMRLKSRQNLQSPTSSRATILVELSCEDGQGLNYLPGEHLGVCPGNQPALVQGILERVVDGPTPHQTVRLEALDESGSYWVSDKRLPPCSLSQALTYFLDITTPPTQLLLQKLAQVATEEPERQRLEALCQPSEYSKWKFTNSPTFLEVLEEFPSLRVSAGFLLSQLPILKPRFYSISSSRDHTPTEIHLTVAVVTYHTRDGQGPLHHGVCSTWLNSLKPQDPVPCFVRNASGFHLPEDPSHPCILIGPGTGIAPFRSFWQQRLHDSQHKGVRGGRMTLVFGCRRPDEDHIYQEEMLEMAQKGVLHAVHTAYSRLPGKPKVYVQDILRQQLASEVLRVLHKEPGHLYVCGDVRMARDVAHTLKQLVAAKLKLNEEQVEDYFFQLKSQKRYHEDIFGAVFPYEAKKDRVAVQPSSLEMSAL

[4] = Drug distribution in C57BL/6J mouse plasma at 10 mg/kg, ip incubated for 1 hrs by LC/MS/MS analysis; format: ADME, organism-based; details: in vivo
[5] = Ratio of drug level in C57BL/6J mouse brain to plasma at 10 mg/kg, ip incubated for 1 hrs by LC/MS/MS analysis; format: ADME, organism-based; details: read-out: BPR
[6] = Drug distribution in C57BL/6J mouse brain at 10 mg/kg, ip incubated for 1 hrs by LC/MS/MS analysis; format: ADME, organism-based; details: in vivo
Cannabinoid receptor 1 [7] = molecular target: T1, Cannabinoid receptor 1; assay: Inverse agonist activity at human CB1R expressed in CHO-K1 cell membrane assessed as […] in [35S]GTPgammaS binding; format: functional, cell membranes
[8] = Drug distribution in C57BL/6J mouse liver at 10 mg/kg, ip incubated for 1 hrs by LC/MS/MS analysis; format: ADME, organism-based; details: in vivo
[9] = Stability in C57BL/6J mouse plasma assessed as half life at 3 mg/kg, ip by LC-MS/MS analysis; format: ADME, organism-based
Mus musculus [10] = assay: Anti-obesity activity in high fat diet-induced obese C57BL/6J mouse assessed as reduction in body weight at 10 mg/kg, ip measured every daily for 1 weeks; format: functional; details: 168 h
Mus musculus [11] = assay: Anti-obesity activity in high fat diet-induced obese C57BL/6J mouse assessed as reduction in food intake at 10 mg/kg, ip measured every daily for 1 weeks; format: functional, organism-based
[12] = Protein binding in mouse plasma assessed as […] at 5 uM and incubated for 4 hrs by LC-MS/MS analysis; format: ADME, cell-free; details: read-out: PPB
[13] = Protein binding in human plasma assessed as […] at 5 uM for 4 hrs by LC-MS/MS analysis; format: ADME, cell-free; details: read-out: PPB

T1 sequence (P21554 whole entry): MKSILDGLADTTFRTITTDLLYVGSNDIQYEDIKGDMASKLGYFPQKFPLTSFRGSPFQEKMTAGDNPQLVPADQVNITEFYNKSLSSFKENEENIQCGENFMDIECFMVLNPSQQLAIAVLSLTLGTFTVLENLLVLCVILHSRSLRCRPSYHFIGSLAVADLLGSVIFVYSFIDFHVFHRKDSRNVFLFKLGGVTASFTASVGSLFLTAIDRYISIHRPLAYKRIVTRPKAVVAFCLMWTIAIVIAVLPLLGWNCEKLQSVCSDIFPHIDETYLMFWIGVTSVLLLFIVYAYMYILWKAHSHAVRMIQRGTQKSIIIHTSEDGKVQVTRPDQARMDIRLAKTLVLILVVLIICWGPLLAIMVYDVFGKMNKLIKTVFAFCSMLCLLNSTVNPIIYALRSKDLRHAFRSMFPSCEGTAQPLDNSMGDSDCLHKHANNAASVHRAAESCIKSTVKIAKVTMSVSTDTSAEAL

Ki (Cannabinoid receptor 1 [1]; read-out: Ki) [nM]	Ki (Cannabinoid receptor 2; read-out: Ki) [nM]	IC50 (Cannabinoid receptor 1 [2]; read-out: IC50) [nM]	inhibition [3]	Compound	also measured
13	70	388	Active	CCN(CC)S(=O)(=O)/N=C(/N=C(\N)SC)N1CC(c2ccccc2)C(c2ccc(Cl)cc2)=N1 (centres undefined)	–
1.1	> 100	2	–	CC(C)(C)/C(N)=N/C(=N/S(=O)(=O)N1CCC(C(F)(F)F)CC1)N1CC(c2ccccc2)C(c2ccc(Cl)cc2)=N1 (centres undefined)	Drug uptake [4]: Active; Kp at 1 h [5]: 0.15; Drug uptake [6]: Active; IC50 (Cannabinoid receptor 1 [7]): 1.8 nM; Drug uptake [8]: Active
3.3	28	4.4	–	N/C(=N\C(=N\S(=O)(=O)N1CCC(F)(F)CC1)N1CC(c2ccccc2)C(c2ccc(Cl)cc2)=N1)c1ccc(F)cc1 (centres undefined)	–
610	> 1000	–	–	C/C(N)=N\C(=N\S(=O)(=O)N1CCCCC1)N1C[C@@H](c2ccccc2)C(c2ccc(Cl)cc2)=N1	IC50 (Cannabinoid receptor 1 [2]; cho-k1): Not Active
–	–	–	–	CCN(CC)S(=O)(=O)/N=C(/N=C(/C)N)N1C[C@@H](c2ccccc2)C(c2ccc(Cl)cc2)=N1	Ki (Cannabinoid receptor 1 [1]; cho-k1): Not Active; Ki (Cannabinoid receptor 2; cho-k1): Not Active; IC50 (Cannabinoid receptor 1 [2]; cho-k1): Not Active
5.5	> 1000	4.2	–	N/C(=N\C(=N\S(=O)(=O)N1CCC(F)(F)CC1)N1CC(c2ccccc2)C(c2ccc(Cl)cc2)=N1)c1ccc(Cl)cc1 (centres undefined)	Drug uptake [4]: Active; Kp at 1 h [5]: 0.14; Drug uptake [6]: Active; IC50 (Cannabinoid receptor 1 [7]): 2.5 nM; Drug uptake [8]: Active
5.5	20	5.4	–	N/C(=N\C(=N\S(=O)(=O)N1CCC(C(F)(F)F)CC1)N1CC(c2ccccc2)C(c2ccc(Cl)cc2)=N1)c1ccc(Cl)cc1 (centres undefined)	–
10.8	70	86	Active	CCN(CC)S(=O)(=O)/N=C(/N=C(\N)c1ccc(Cl)cc1)N1CC(c2ccccc2)C(c2ccc(Cl)cc2)=N1 (centres undefined)	–
75.3	> 1000	427	Active	N/C(=N\C(=N\S(=O)(=O)N1CCCC1)N1CC(c2ccccc2)C(c2ccc(Cl)cc2)=N1)c1ccc(Cl)cc1 (centres undefined)	–
> 1000	> 1000	–	–	CS/C(N)=N/C(=N/S(=O)(=O)N1CCC(C(F)(F)F)CC1)N1C[C@@H](c2ccccc2)C(c2ccc(Cl)cc2)=N1	IC50 (Cannabinoid receptor 1 [2]; cho-k1): Not Active
7.4	> 1000	137	Active	C/C(N)=N/C(=N/S(=O)(=O)N1CCCC1)N1CC(c2ccccc2)C(c2ccc(Cl)cc2)=N1 (centres undefined)	–
19.2	> 1000	25	–	N/C(=N\C(=N\S(=O)(=O)N1CCOCC1)N1CC(c2ccccc2)C(c2ccc(Cl)cc2)=N1)c1ccc(Cl)cc1 (centres undefined)	–
41	> 1000	91	–	CS/C(N)=N/C(=N/S(=O)(=O)N1CCOCC1)N1CC(c2ccccc2)C(c2ccc(Cl)cc2)=N1 (centres undefined)	–
3	> 100	57	–	C/C(N)=N\C(=N\S(=O)(=O)N1CCCCC1)N1CC(c2ccccc2)C(c2ccc(Cl)cc2)=N1 (centres undefined)	Drug uptake [4]: Active; Kp at 1 h [5]: 0.04; Drug uptake [6]: Active; Drug uptake [8]: Active
10.5	> 1000	115	Active	N/C(=N\C(=N\S(=O)(=O)N1CCCC1)N1CC(c2ccccc2)C(c2ccc(Cl)cc2)=N1)c1ccc(F)cc1 (centres undefined)	–

Compound	Ki (Cannabinoid receptor 1 [1]; read-out: Ki) [nM]	Ki (Cannabinoid receptor 2; read-out: Ki) [nM]	IC50 (Cannabinoid receptor 1 [2]; read-out: IC50) [nM]	inhibition [3]	also measured
C/C(N)=N/C(=N/S(=O)(=O)N1CCC(C(F)(F)F)CC1)N1CC(c2ccccc2)C(c2ccc(Cl)cc2)=N1 (centres undefined)	3.9	> 100	273	–	–
CCN(CC)S(=O)(=O)/N=C(/N=C(/C)N)N1CC(c2ccccc2)C(c2ccc(Cl)cc2)=N1 (centres undefined)	5.9	> 100	1.9	Active	Drug uptake [4]: Active; Kp at 1 h [5]: 0.025; Drug uptake [6]: Active; Drug uptake [8]: Active
CS/C(N)=N/C(=N/S(=O)(=O)N1CCC(C(F)(F)F)CC1)N1C[C@H](c2ccccc2)C(c2ccc(Cl)cc2)=N1	0.7	334	2	–	half-life [9]: < 2 h; inhibition in vivo at 10 mg/kg (Mus musculus [10]): 8%; Activity (Mus musculus [11]): Active; fraction unbound at 4 h, 5 µM [12]: ≤ 0.006; IC50 (Cannabinoid receptor 1 [7]): 1.6 nM; fraction unbound at 4 h, 5 µM [13]: ≤ 0.006

— ChEMBL document CHEMBL5046268, “Synthesis, Biological Evaluation, and Molecular Modeling Studies of 3,4-Diarylpyrazoline Series of Compounds as Potent, Nonbrain Penetrant Antagonists of Cannabinoid-1 (CB1R) Receptor with Reduced Lipophilicity” (J Med Chem, 2022)
